Test results reported in patent US7829568B2, “Substituted 5,6,7,8-tetrahydroimidazo[1,2-a]pyridin-2-ylamine compounds and their use for producing drugs” (Gruenenthal GmbH, priority 2005, dated 2010).

Tested on: batrachotoxin (BTX) binding site of the sodium channel
Assay: Affinity to the batrachotoxin (BTX) binding site of the sodium channel
Set-up: species or system rat
Settings: [3H]-batrachotoxinin A20 α-benzoate 10 nM; synaptosomes from rat cerebral cortex; test concentration not given

SMILES: CN(C(=O)c1cccc2ccccc12)c1nc2n(c1C(=O)NC1CCN(Cc3ccc(C(F)(F)F)cc3)C1)CCCC2 (stereo not shown) [Example 30, 2-[methyl-(naphthalene-1-carbonyl)-amino]-5,6,7,8-tetrahydro-imidazo[1,2-a]pyridine-3-carboxylic acid [1-(4-trifluoromethyl-benzyl)-pyrrolidin-3-yl]-amide]
- BTX inhibition (rat) (% inhibition): 85%

SMILES: CN(C(=O)c1cccc(Cl)c1)c1nc2n(c1C(=O)NCCc1cccc(C(F)(F)F)c1)CCCC2 [Example 71, 2-[(3-chloro-benzoyl)-methyl-amino]-5,6,7,8-tetrahydro-imidazo[1,2-a]pyridine-3-carboxylic acid [2-(3-trifluoromethyl-phenyl)-ethyl]-amide]
- BTX inhibition (rat) (% inhibition): 36%

SMILES: CCCCN(C(=O)c1cccc(Cl)c1)c1nc2n(c1C(=O)NCCc1cc(OC)ccc1OC)CCCC2 [Example 2, 2-[butyl-(3-chloro-benzoyl)-amino]-5,6,7,8-tetrahydro-imidazo[1,2-a]pyridine-3-carboxylic acid [2-(2,5-dimethoxy-phenyl)-ethyl]-amide]
- BTX inhibition (rat) (% inhibition): 59%

SMILES: COc1cc(Br)c(CN2CCC(NC(=O)c3c(N(C)C(=O)c4cccc(Cl)c4)nc4n3CCCC4)C2)cc1OC (stereo not shown) [Example 84, 2-[(3-chloro-benzoyl)-methyl-amino]-5,6,7,8-tetrahydro-imidazo[1,2-a]pyridin-3-carboxylic acid [1-(2-bromo-4,5-dimethoxy-benzyl)-pyrrolidin-3-yl]-amide]
- BTX inhibition (rat) (% inhibition): 87%

SMILES: CCCCN(C(=O)c1cccc(Cl)c1)c1nc2n(c1C(=O)N1CCN(c3ccccn3)CC1)CCCC2 [Example 72, N-butyl-3-chloro-N-[3-(4-pyridin-2-yl-piperazine-1-carbonyl)-5,6,7,8-tetrahydro-imidazo[1,2-a]pyridin-2-yl]-benzamide]
- BTX inhibition (rat) (% inhibition): 39%

SMILES: CCCCN(C(=O)c1cccc(Cl)c1)c1nc2n(c1C(=O)NCc1cccc(F)c1)CCCC2 [Example 158, 2-[butyl-(3-chloro-benzoyl)-amino]-5,6,7,8-tetrahydro-imidazo[1,2-a]pyridine-3-carboxylic acid 3-fluoro-benzylamide]
- BTX inhibition (rat) (% inhibition): 33%

SMILES: CCCCN(C(=O)c1ccc(F)c(F)c1)c1nc2n(c1C(=O)N1CCN(Cc3ccc(Cl)cc3)CC1)CCCC2 [Example 150, N-butyl-N-{3-[4-(4-chlorobenzyl)-piperazine-1-carbonyl]-5,6,7,8-tetrahydro-imidazo[1,2-a]pyridin-2-yl}-3,4-difluoro-benzamide]
- BTX inhibition (rat) (% inhibition): 69%

SMILES: CCCCN(C(=O)c1cccc(Cl)c1)c1nc2n(c1C(=O)NCCc1c[nH]c3c(C)cccc13)CCCC2 [Example 69, 2-[butyl-(3-chloro-benzoyl)-amino]-5,6,7,8-tetrahydro-imidazo[1,2-a]pyridine-3-carboxylic acid [2-(7-methyl-1H-indol-3-yl)-ethyl]-amide]
- BTX inhibition (rat) (% inhibition): 48%

SMILES: CN(C(=O)c1cccc(Cl)c1)c1nc2n(c1C(=O)N1CCN(Cc3ccc4c(c3)OCO4)CC1)CCCC2 [Example 45, N-[3-(4-benzo[1,3]dioxol-5-ylmethyl-piperazine-1-carbonyl)-5,6,7,8-tetrahydro-imidazo[1,2-a]pyridin-2-yl]-3-chloro-N-methyl-benzamide]
- BTX inhibition (rat) (% inhibition): 41%

SMILES: CCCCN(C(=O)c1cccc(Cl)c1)c1nc2n(c1C(=O)N[C@H](C(=O)OCc1ccccc1)C(C)C)CCCC2 [Example 91]
- BTX inhibition (rat) (% inhibition): 48%

SMILES: CCCCN(C(=O)c1cccc(Cl)c1)c1nc2n(c1C(=O)Nc1ccc(C(C)(C)C)cc1)CCCC2 [Example 152, 2-[butyl-(3-chloro-benzoyl)-amino]-5,6,7,8-tetrahydro-imidazo[1,2-a]pyridine-3-carboxylic acid (4-tert-butyl-phenyl)-amide]
- BTX inhibition (rat) (% inhibition): 92%

SMILES: CCCCN(C(=O)c1ccc(F)c(F)c1)c1nc2n(c1C(=O)NC1CCC(C)CC1)CCCC2 (stereo not shown) [Example 16, 2-[butyl-(3,4-difluoro-benzoyl)-amino]-5,6,7,8-tetrahydro-imidazo[1,2-a]pyridine-3-carboxylic acid (4-methyl-cyclohexyl)-amide]
- BTX inhibition (rat) (% inhibition): 47%

SMILES: CN(C(=O)c1cccc2ccccc12)c1nc2n(c1C(=O)NCCc1ccc(Oc3ccccc3)cc1)CCCC2 [Example 68, 2-[methyl-(naphthalene-1-carbonyl)-amino]-5,6,7,8-tetrahydro-imidazo[1,2-a]pyridine-3-carboxylic acid [2-(4-phenoxy-phenyl)-ethyl]-amide]
- BTX inhibition (rat) (% inhibition): 87%

SMILES: CCCCN(C(=O)c1cccc(Cl)c1)c1nc2n(c1C(=O)NCC1COc3ccccc3O1)CCCC2 (stereo not shown) [Example 77, 2-[butyl-(3-chloro-benzoyl)-amino]-5,6,7,8-tetrahydro-imidazo[1,2-a]pyridine-3-carboxylic acid (2,3-dihydro-benzo[1,4]dioxin-2-ylmethyl)-amide]
- BTX inhibition (rat) (% inhibition): 56%

SMILES: CN(C(=O)Cc1ccccc1)c1nc2n(c1C(=O)NCCc1cccc(C(F)(F)F)c1)CCCC2 [Example 156, 2-(methyl-phenylacetyl-amino)-5,6,7,8-tetrahydro-imidazo[1,2-a]pyridine-3-carboxylic acid [2-(3-trifluoromethyl-phenyl)-ethyl]-amide]
- BTX inhibition (rat) (% inhibition): 40%

SMILES: CN(C(=O)c1cccc(Cl)c1)c1nc2n(c1C(=O)N1CCN(Cc3ccc4ccccc4n3)CC1)CCCC2 [Example 53, 3-chloro-N-methyl-N-[3-(4-quinolin-2-ylmethyl-piperazine-1-carbonyl)-5,6,7,8-tetrahydro-imidazo[1,2-a]pyridin-2-yl]-benzamide]
- BTX inhibition (rat) (% inhibition): 64%

SMILES: CCCCN(C(=O)c1cccc(Cl)c1)c1nc2n(c1C(=O)NCc1cccc(C)c1)CCCC2 [Example 113, 2-[butyl-(3-chloro-benzoyl)-amino]-5,6,7,8-tetrahydro-imidazo[1,2-a]pyridine-3-carboxylic acid 3-methyl-benzylamide]
- BTX inhibition (rat) (% inhibition): 31%

SMILES: CCCCN(C(=O)c1ccc(F)c(F)c1)c1nc2n(c1C(=O)N1CCN(c3cc(C)ccc3C)CC1)CCCC2 [Example 138, N-butyl-N-{3-[4-(2,5-dimethyl-phenyl)-piperazine-1-carbonyl]-5,6,7,8-tetrahydro-imidazo[1,2-a]pyridin-2-yl}-3,4-difluoro-benzamide]
- BTX inhibition (rat) (% inhibition): 80%

SMILES: CCCCN(C(=O)c1cccc(Cl)c1)c1nc2n(c1C(=O)NC1CCc3ccccc31)CCCC2 (stereo not shown) [Example 52, 2-[butyl-(3-chloro-benzoyl)-amino]-5,6,7,8-tetrahydro-imidazo[1,2-a]pyridine-3-carboxylic acid indan-1-ylamide]
- BTX inhibition (rat) (% inhibition): 45%

SMILES: CCCCN(C(=O)c1ccc(F)c(F)c1)c1nc2n(c1C(=O)NCc1ccccc1OC(F)(F)F)CCCC2 [Example 88, 2-[butyl-(3,4-difluoro-benzoyl)-amino]-5,6,7,8-tetrahydro-imidazo[1,2-a]pyridine-3-carboxylic acid 2-trifluoromethoxy-benzylamide]
- BTX inhibition (rat) (% inhibition): 31%

SMILES: Cc1ccc(NC(=O)c2c(N(C)C(=O)Cc3ccccc3)nc3n2CCCC3)cc1 [Example 159, 2-(methyl-phenylacetyl-amino)-5,6,7,8-tetrahydro-imidazo[1,2-a]pyridine-3-carboxylic acid p-tolylamide]
- BTX inhibition (rat) (% inhibition): 37%

SMILES: CN(C(=O)c1cccc(Cl)c1)c1nc2n(c1C(=O)N1CCC(O)(c3cccc(C(F)(F)F)c3)CC1)CCCC2 [Example 81, 3-chloro-N-{3-[4-hydroxy-4-(3-trifluoromethyl-phenyl)-piperidine-1-carbonyl]-5,6,7,8-tetrahydro-imidazo[1,2-a]pyridin-2-yl}-N-methyl-benzamide]
- BTX inhibition (rat) (% inhibition): 33%

SMILES: CN(C(=O)Cc1ccccc1)c1nc2n(c1C(=O)N1CCN(CCCc3ccccc3)CC1)CCCC2 [Example 176, N-methyl-2-phenyl-N-{3-[4-(3-phenyl-propyl)-piperazine-1-carbonyl]-5,6,7,8-tetrahydro-imidazo[1,2-a]pyridin-2-yl}-acetamide]
- BTX inhibition (rat) (% inhibition): 71%

SMILES: CC1C(NC(=O)c2c(N(C)C(=O)c3cccc(Cl)c3)nc3n2CCCC3)CC2CC1C2(C)C (stereo not shown) [Example 27, 2-[(3-chloro-benzoyl)-methyl-amino]-5,6,7,8-tetrahydro-imidazo[1,2-a]pyridine-3-carboxylic acid (2,6,6-trimethyl-bicyclo[3.1.1]hept-3-yl)-amide]
- BTX inhibition (rat) (% inhibition): 35%

SMILES: CCCCN(C(=O)c1cccc(Cl)c1)c1nc2n(c1C(=O)NC1CCCCC1OCc1ccccc1)CCCC2 (stereo not shown) [Example 124, 2-[butyl-(3-chloro-benzoyl)-amino]-5,6,7,8-tetrahydro-imidazo[1,2-a]pyridine-3-carboxylic acid (2-benzyloxy-cyclohexyl)-amide]
- BTX inhibition (rat) (% inhibition): 48%

SMILES: CCCCN(C(=O)c1ccc(F)c(F)c1)c1nc2n(c1C(=O)NCCC(c1ccccc1)c1ccccc1)CCCC2 [Example 180, 2-[butyl-(3,4-difluoro-benzoyl)-amino]-5,6,7,8-tetrahydro-imidazo[1,2-a]pyridine-3-carboxylic acid (3,3-diphenyl-propyl)-amide]
- BTX inhibition (rat) (% inhibition): 62%

SMILES: CC(CNC(=O)c1c(N(C)C(=O)c2cccc3ccccc23)nc2n1CCCC2)c1ccc(Cl)cc1 (stereo not shown) [Example 163, 2-[methyl-(naphthalene-1-carbonyl)-amino]-5,6,7,8-tetrahydro-imidazo[1,2-a]pyridine-3-carboxylic acid [2-(4-chlor-phenyl)-propyl]-amide]
- BTX inhibition (rat) (% inhibition): 40%

SMILES: CCc1ccc(NC(=O)c2c(N(C)C(=O)c3cccc(Cl)c3)nc3n2CCCC3)cc1 [Example 31, 2-[(3-chloro-benzoyl)-methyl-amino]-5,6,7,8-tetrahydro-imidazo[1,2-a]pyridine-3-carboxylic acid (4-ethyl-phenyl)-amide]
- BTX inhibition (rat) (% inhibition): 70%
